The values that follow come from US5543415A, “Antidepressants” (Kyowa Hakko Kogyo Co., Ltd., priority 1992, dated 1996).

Like-named read-outs stand apart in the source and are kept apart here. Some results are limits rather than exact numbers.

The test system of data set [1] is clonidine-induced aggressive behavior. Nature of the data set: Effect on Clonidine-Induced Aggressive Behavior (number of biting attacks during 30 minutes). The class given is in vivo, male ddY mice. Particulars: po; for Number of the Biting Attacks (mean ± S.E.M.), Test Compound-Treated Group: 60 min before clonidine 20 mg/kg ip, 30 min count. As for the experimental part: The effect of a test compound on the aggressive behavior induced by intraperitoneal administration of clonidine was investigated. […] The experiment was performed by using several groups of male ddY mice (weighing 20 to 25 g, Japan SLC), each group consisting of two mice. The test compound was suspended in injectable distilled water (Otsuka Pharmaceutical Co., Ltd.) containing Tween 80 [polyoxyethylene (20) sorbitan monooleate]. Clonidine hydrochloride (Sigma Co.) was dissolved in physiological saline solution (Otsuka Pharmaceutical Co., Ltd.). The test compound suspension and the control suspension were orally administered to separate groups of the mice (0.1 ml per 10 g of body weight). Sixty minutes after the oral administration of the test compound, clonidine hydrochloride (20 mg/kg) was intraperitoneally injected. The number of biting attacks during 30 minutes after clonidine treatment was counted. The effect of the compound was evaluated by comparing the average number of biting attacks of the test compound-administered groups with that of control groups (Statistical comparison: Student's t-test).

The subject of another data set is ddY-strain male mice. Description: Acute Toxicity Test (minimum lethal dose, oral). In kind it is in vivo. Particulars: seven days after administration. The protocol:
Test compounds were orally administered to groups of ddY-strain male mice weighing 20±1 g, each group consisting of three mice. Seven days after the administration, minimum lethal dose (MLD) of each compound was determined by observing the mortality.

Where [2] appears, read: Mus musculus, 2.5 mg/kg, read-out: Number of the Attacks of Test Compound-Treated Group/Number of the Attacks of Control Group.
[3] abbreviates: Mus musculus, 10 mg/kg, read-out: Number of the Attacks of Test Compound-Treated Group/Number of the Attacks of Control Group.

In the case of `CCCn1c(=O)c2c(nc(/C=C/c3ccc(OC)c(OC)c3)n2C)n(CCC)c1=O` [Compound 1, (E)-8-(3,4-Dimethoxystyryl)-7-methyl-1,3-dipropylxanthine], the “Number of the Biting Attacks (mean ± S.E.M.), Test Compound-Treated Group” value (“Number of the Biting Attacks” for short) in data set [1] (2.5 mg/kg) worked out at 27.5 ± 7.3. Besides, the response vs control in vivo at 2.5 mg/kg in data set [1] (setting [2]) came out at 480%. Moreover, the “MLD (minimum lethal dose)” value with ddY-strain male mice is reported as over 300 mg/kg.
`COc1cc(/C=C/c2nc3c(c(=O)n(C)c(=O)n3C)n2C)cc(OC)c1OC` [Compound 2, (E)-8-(3,4,5-trimethoxystyryl)caffeine]: in data set [1] (1.25 mg/kg), the “Number of the Biting Attacks” value amounted to 29.0 ± 7.9. For the same molecule, the response vs control in vivo at 1.25 mg/kg in data set [1] (Mus musculus, 1.25 mg/kg, read-out: Number of the Attacks of Test Compound-Treated Group/Number of the Attacks of Control Group) amounted to 470%. Also, the “MLD (minimum lethal dose)” value in the data set with ddY-strain male mice is reported as over 300 mg/kg.
As to `CCCn1c(=O)c2c(nc(/C=C/c3ccccc3)n2C)n(CCC)c1=O` [Compound 3, (E)-7-Methyl-1,3-dipropyl-8-styrylxanthine], the “Number of the Biting Attacks” value in data set [1] (10 mg/kg) is 26.1 ± 5.42. Besides, the response vs control in vivo at 10 mg/kg in data set [1] (setting [3]) was 340%. The “MLD (minimum lethal dose)” value with ddY-strain male mice is over 300 mg/kg.
As to `CCn1c(=O)c2c(nc(/C=C/c3cc(OC)c(OC)c(OC)c3)n2C)n(CC)c1=O` [Compound 4, (E)-1,3-diethyl-7-methyl-8-(3,4,5-trimethoxystyryl)xanthine], the “Number of the Biting Attacks” value is listed as 25.3 ± 4.51 in data set [1] (0.63 mg/kg), 36.9 ± 7.81 in data set [1] (2.5 mg/kg) and 51.3 ± 9.37 in data set [1] (10 mg/kg). In addition, the response vs control in vivo at 0.63 mg/kg in data set [1] (Mus musculus, 0.63 mg/kg, read-out: Number of the Attacks of Test Compound-Treated Group/Number of the Attacks of Control Group) amounted to 970%. Besides, the response vs control in vivo at 2.5 mg/kg in data set [1] (setting [2]) was determined as 540%. The “MLD (minimum lethal dose)” value in the data set on ddY-strain male mice is given as over 300 mg/kg.
Consider `CCCn1c(=O)c2c(nc(/C=C/c3cc(OC)c(OC)c(OC)c3)n2C)n(CCC)c1=O` [Compound 5, (E)-7-Methyl-1,3-dipropyl-8-(3,4,5-trimethoxystyryl)xanthine], for which the “Number of the Biting Attacks” value in data set [1] (5 mg/kg) was determined as 25.4 ± 7.71. In addition, the response vs control in vivo at 5 mg/kg in data set [1] (Mus musculus, 5 mg/kg, read-out: Number of the Attacks of Test Compound-Treated Group/Number of the Attacks of Control Group) was 350%. Also, in the data set with ddY-strain male mice, the “MLD (minimum lethal dose)” value is listed as over 300 mg/kg.
For `CCCn1c(=O)c2c(nc(/C=C/c3ccc(OC)cc3)n2C)n(CCC)c1=O` [Compound 6, (E)-8-(4-Methoxystyryl)-7-methyl-1,3-dipropylxanthine], the “Number of the Biting Attacks” value in data set [1] (10 mg/kg) was 83.7 ± 10.95. Besides, the “MLD (minimum lethal dose)” value in the data set on ddY-strain male mice was over 300 mg/kg.
For `C=CCn1c(=O)c2c(nc(/C=C/c3cc(OC)c(OC)c(OC)c3)n2C)n(CC=C)c1=O` [Compound 7, (E)-1,3-Diallyl-7-methyl-8-(3,4,5-trimethoxystyryl)xanthine], the “Number of the Biting Attacks” value in data set [1] (2.5 mg/kg) amounted to 40.1 ± 8.36. The response vs control in vivo at 2.5 mg/kg in data set [1] (setting [2]) is 640%. Besides, the “MLD (minimum lethal dose)” value with ddY-strain male mice is listed as over 300 mg/kg.
With `CCCn1c(=O)c2c(nc(/C=C/c3ccc(OC)c(C)c3C)n2C)n(CCC)c1=O` [Compound 14, (E)-8-(4-Methoxy-2,3-dimethylstyryl)-7-methyl-1,3-dipropylxanthine], the “Number of the Biting Attacks” value in data set [1] (2.5 mg/kg) is 40.7 ± 8.50. Further, the response vs control in vivo at 2.5 mg/kg in data set [1] (setting [2]) was 730%. The “MLD (minimum lethal dose)” value in the data set on ddY-strain male mice is over 300 mg/kg.
As to `CCCn1c(=O)c2c(nc(/C=C/c3ccc4c(c3)OCCO4)n2C)n(CCC)c1=O` [Compound 18, (E)-8-[2-(1,4-Benzodioxan-6-yl)vinyl]-7-methyl-1,3-dipropylxanthine], the “Number of the Biting Attacks” value in data set [1] (2.5 mg/kg) turned out to be 8.6 ± 3.74; in data set [1] (10 mg/kg), 26.2 ± 7.32. For the same molecule, the response vs control in vivo at 2.5 mg/kg in data set [1] (setting [2]) was 390%. The response vs control in vivo at 10 mg/kg in data set [1] (setting [3]) is 640%. The “MLD (minimum lethal dose)” value in the data set with ddY-strain male mice is reported as over 300 mg/kg.
For `CCCn1c(=O)c2c(nc(/C=C/c3ccc(OC)c(OC)c3OC)n2C)n(CCC)c1=O` [Compound 22, (E)-7-Methyl-1,3-dipropyl-8-(2,3,4-trimethoxystyryl)xanthine], the “Number of the Biting Attacks” value in data set [1] (10 mg/kg) worked out at 33.1 ± 5.18. In data set [1] (setting [3]), the response vs control in vivo at 10 mg/kg is 680%. The “MLD (minimum lethal dose)” value in the data set on ddY-strain male mice is on record as over 300 mg/kg.
For `CCCn1c(=O)c2c(nc(/C=C/c3ccc(OCC)cc3)n2C)n(CCC)c1=O` [Compound 49, (E)-8-(4-Ethoxystyryl)-7-methyl-1,3-dipropylxanthine], in data set [1] (10 mg/kg), the “Number of the Biting Attacks” value amounted to 81.5 ± 13.97. Besides, the “MLD (minimum lethal dose)” value with ddY-strain male mice is reported as over 300 mg/kg.
With `C=CCn1c(=O)c2c(nc(/C=C/c3ccc(OC)c(OC)c3)n2C)n(CC=C)c1=O` [Compound 70, (E)-1,3-Diallyl-8-(3,4-dimethoxystyryl)-7-methylxanthine], the “Number of the Biting Attacks” value in data set [1] (10 mg/kg) turned out to be 60.3 ± 11.71. The response vs control in vivo at 10 mg/kg in data set [1] (setting [3]) was 790%. Besides, in the data set with ddY-strain male mice, the “MLD (minimum lethal dose)” value is on record as over 100 mg/kg.
Take `CCn1c(=O)c2[nH]c(/C=C/c3cc(OC)c4c(c3)OCO4)nc2n(CC)c1=O` [Compound 178, (E)-1,3-Diethyl-8-(3-methoxy-4,5-methylenedioxystyryl)xanthine]: the “MLD (minimum lethal dose)” value with ddY-strain male mice is over 100 mg/kg.
The same measure, in the same setting: next, `CCn1c(=O)c2[nH]c(/C=C/c3cccc(F)c3C)nc2n(CC)c1=O` [Compound 180, (E)-1,3-Diethyl-8-(3-fluoro-2-methylstyryl)xanthine]: over 100 mg/kg.
As for `CCn1c(=O)c2c(nc(/C=C/c3ccc(O)c(O)c3)n2C)n(CC)c1=O` [Compound 182, (E)-8-(3,4-Dihydroxystyryl)-1,3-diethyl-7-methylxanthine], the “MLD (minimum lethal dose)” value with ddY-strain male mice was over 100 mg/kg.
On the same count and under the same terms, next, `CCn1c(=O)c2c(nc(/C=C/c3ccc(OC)c(O)c3)n2C)n(CC)c1=O` [Compound 183, (E)-1,3-Diethyl-8-(3-hydroxy-4-methoxystyryl)-7-methylxanthine]: over 100 mg/kg.
On the same count and under the same terms, the value for `CCn1c(=O)c2c(nc(/C=C/c3ccc(OCCCCBr)cc3)n2C)n(CC)c1=O` [Compound 186, (E)-8-[4-(4-Bromobutoxy)styryl]-1,3-diethyl-7-methylxanthine] was over 100 mg/kg; that for `CCn1c(=O)c2c(nc(/C=C/c3ccc(OCCCCN=[N+]=[N-])cc3)n2C)n(CC)c1=O` [Compound 187, (E)-8-[4-(4-Azidobutoxy)styryl]-1,3-diethyl-7-methylxanthine] was over 100 mg/kg.
Same read-out and setting: the value for `CCn1c(=O)c2c(nc(/C=C/c3ccc(OCCCCN)cc3)n2C)n(CC)c1=O` [Compound 188, (E)-8-[4-(4-Aminobutoxy)styryl]-1,3-diethyl-7-methylxanthine] was over 100 mg/kg.
For `CCOC(=O)COc1ccc(/C=C/c2nc3c(c(=O)n(CC)c(=O)n3CC)n2C)cc1` [Compound 189, (E)-8-(4-Ethoxycarbonylmethoxystyryl)-1,3-diethyl-7-methylxanthine], in the data set on ddY-strain male mice, the “MLD (minimum lethal dose)” value is listed as over 100 mg/kg.
The same measure, in the same setting: the value for `CCn1c(=O)c2c(nc(/C=C/c3ccc(OCC(=O)O)cc3)n2C)n(CC)c1=O` [Compound 190, (E)-8-(4-Carboxymethoxystyryl)-1,3-diethyl-7-methylxanthine] was over 100 mg/kg.
On to `CCn1c(=O)c2[nH]c(/C=C/c3cccc(Oc4ccccc4)c3)nc2n(CC)c1=O` [Compound 191, (E)-1,3-Diethyl-8-(3-phenoxystyryl)xanthine], for which the “MLD (minimum lethal dose)” value with ddY-strain male mice is over 100 mg/kg.
Still for that read-out and setting: the value for `CCn1c(=O)c2c(nc(/C=C/c3cccc(Oc4ccccc4)c3)n2C)n(CC)c1=O` [Compound 192, (E)-1,3-Diethyl-7-methyl-8-(3-phenoxystyryl)xanthine] was over 100 mg/kg.
Same read-out and setting: next, `CCn1c(=O)c2[nH]c(/C=C/c3ccc(O)cc3)nc2n(CC)c1=O` [Compound 193, (E)-1,3-Diethyl-8-(4-hydroxystyryl)xanthine]: over 100 mg/kg; `CCn1c(=O)c2c(nc(/C=C/c3ccc(O)c(C)c3C)n2C)n(CC)c1=O` [Compound 194, (E)-1,3-Diethyl-8-(4-hydroxy-2,3-dimethylstyryl)-7-methylxanthine]: over 100 mg/kg.
`Cn1c(=O)c2[nH]cnc2n(C)c1=O` [theophylline, reference compound]: the “Number of the Biting Attacks” value in data set [1] (10 mg/kg) was 18.6 ± 3.58. Besides, the response vs control in vivo at 10 mg/kg in data set [1] (Mus musculus, read-out: Number of the Attacks of Test Compound-Treated Group/Number of the Attacks of Control Group) stood at 520%.
